target: Tyk2 (Homo sapiens (Human), UniProt P29597); experiment: pSTAT4 Cell Assay (MSD, NK92 cells); type: cell-based; conditions: not given
Description: The inhibitory potency of compounds of the disclosure against the Tyk2 kinase activity on STAT4 was evaluated using an MSD-platform plate-based assay format. NK92 cells natively expressing STAT4 and Tyk2 were serum-starved to reduce background phosphorylation levels, then cells were treated compounds for 1 hr with a 10-point four-fold dilution series starting at 10 μM. Cells were then stimulated with 30 ng/mL […] for 15 minutes. […] The data were normalized and the percent activity versus log concentration of compound were fitted with a 4-parameter logistic model to generate to generate IC50 curves.

Chain of Tyk2 (P29597 whole entry): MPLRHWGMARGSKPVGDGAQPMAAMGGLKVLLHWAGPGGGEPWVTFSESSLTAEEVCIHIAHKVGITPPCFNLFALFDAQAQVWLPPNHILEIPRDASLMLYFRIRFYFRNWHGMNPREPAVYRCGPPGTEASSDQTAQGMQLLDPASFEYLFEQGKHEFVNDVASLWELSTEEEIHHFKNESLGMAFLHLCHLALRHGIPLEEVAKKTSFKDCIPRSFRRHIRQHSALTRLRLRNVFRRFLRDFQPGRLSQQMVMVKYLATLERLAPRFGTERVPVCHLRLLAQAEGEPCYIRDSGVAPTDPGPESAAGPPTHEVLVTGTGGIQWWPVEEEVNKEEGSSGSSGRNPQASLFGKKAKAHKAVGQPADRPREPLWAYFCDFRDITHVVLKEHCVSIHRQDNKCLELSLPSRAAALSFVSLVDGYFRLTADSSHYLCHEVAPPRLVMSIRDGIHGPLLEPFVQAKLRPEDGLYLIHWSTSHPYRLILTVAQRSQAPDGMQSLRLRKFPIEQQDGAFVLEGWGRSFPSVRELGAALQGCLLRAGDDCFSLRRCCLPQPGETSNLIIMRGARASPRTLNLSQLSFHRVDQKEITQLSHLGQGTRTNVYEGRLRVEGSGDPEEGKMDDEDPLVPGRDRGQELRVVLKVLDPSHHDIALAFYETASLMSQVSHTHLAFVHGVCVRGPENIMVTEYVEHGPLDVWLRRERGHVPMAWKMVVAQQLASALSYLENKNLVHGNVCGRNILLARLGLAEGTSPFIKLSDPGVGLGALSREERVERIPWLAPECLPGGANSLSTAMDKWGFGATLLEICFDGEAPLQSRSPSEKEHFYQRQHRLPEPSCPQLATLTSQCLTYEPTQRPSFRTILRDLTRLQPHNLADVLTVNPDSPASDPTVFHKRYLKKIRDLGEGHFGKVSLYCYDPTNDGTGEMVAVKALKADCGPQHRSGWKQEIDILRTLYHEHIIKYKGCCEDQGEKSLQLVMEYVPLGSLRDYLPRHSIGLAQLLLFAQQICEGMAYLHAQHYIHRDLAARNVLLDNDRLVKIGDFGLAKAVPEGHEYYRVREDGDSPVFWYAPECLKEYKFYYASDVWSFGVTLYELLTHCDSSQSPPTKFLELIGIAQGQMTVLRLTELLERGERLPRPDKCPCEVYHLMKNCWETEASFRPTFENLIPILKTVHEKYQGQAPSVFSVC

| IC50 [nM] | SMILES |
| --- | --- |
| 100 to 1000 | CCc1cc(Nc2cc(NC(C)=O)ncc2-c2ncc(CN3CCCC3)cn2)nc(C(C)(F)F)n1 [Example 903, N-(4-((2-(1,1-difluoroethyl)-6-ethylpyrimidin-4-yl)amino)-5-(5-(pyrrolidin-1-ylmethyl)pyrimidin-2-yl)pyridin-2-yl)acetamide] |

same assay, conditions: MSD

| IC50 [nM] | SMILES |
| --- | --- |
| ≤ 10 | CNC(=O)Nc1cc(Nc2cc(C)nc(C(C)(F)F)n2)c(-c2ccc(F)cn2)cn1 [Example 290, 1-(4′-((2-(1,1-difluoroethyl)-6-methylpyrimidin-4-yl)amino)-5-fluoro-[2,3′-bipyridin]-6′-yl)-3-methylurea] |
| 10 to 100 | CCC1(COc2cnc(NC(C)=O)cc2Nc2cc(C)nc(C(C)(F)F)n2)COC1 [Example 109, N-(4-((2-(1,1-difluoroethyl)-6-methylpyrimidin-4-yl)amino)-5-((3-ethyloxetan-3-yl)methoxy)pyridin-2-yl)acetamide] |
| 10 to 100 | COCCc1cncc(-c2cnc(NC(C)=O)cc2Nc2cc(C)nc(C(C)(F)F)n2)n1 [Example 664, N-(4-((2-(1,1-difluoroethyl)-6-methylpyrimidin-4-yl)amino)-5-(6-(2-methoxyethyl)pyrazin-2-yl)pyridin-2-yl)acetamide] |
| ≤ 10 | CC(=O)Nc1cc(Nc2cc(C)nc(C(C)(F)F)n2)c(-c2cc3n(n2)CC(C)N(C)C3)cn1 (stereo not shown) [Example 548, N-(4-((2-(1,1-difluoroethyl)-6-methylpyrimidin-4-yl)amino)-5-(5,6-dimethyl-4,5,6,7-tetrahydropyrazolo[1,5-a]pyrazin-2-yl)pyridin-2-yl)acetamide] |
| ≥ 1000 | CC(=O)Nc1cc(Nc2cc(C)nc(C(C)(F)F)n2)c(-c2cc(N(C)C)cnn2)cn1 [Example 253, N-(4-((2-(1,1-difluoroethyl)-6-methylpyrimidin-4-yl)amino)-5-(5-(dimethylamino)pyridazin-3-yl)pyridin-2-yl)acetamide] |
| ≤ 10 | CC(=O)Nc1cc(Nc2cc(C)nc(C3CCOC3)n2)c(-c2cc3n(n2)CCN(C)C3)cn1 (stereo not shown) [Example 547, N-(4-((6-methyl-2-(tetrahydrofuran-3-yl)pyrimidin-4-yl)amino)-5-(5-methyl-4,5,6,7-tetrahydropyrazolo[1,5-a]pyrazin-2-yl)pyridin-2-yl)acetamide] |
| ≤ 10 | CC(=O)Nc1cc(Nc2cc(C)nc(C(C)(F)F)n2)c(C2=NC3C(=O)OCC3C=N2)cn1 (stereo not shown) [Example 682, N-(4-((2-(1,1-difluoroethyl)-6-methylpyrimidin-4-yl)amino)-5-(7-oxO4a,5,7,7a-tetrahydrofuro[3,4-d]pyrimidin-2-yl)pyridin-2-yl)acetamide] |
| 10 to 100 | CC(=O)Nc1cc(Nc2cc(C)nc(C(C)(F)F)n2)c(OCC2CCN(C)C2)cn1 (stereo not shown) [Example 480, N-(4-((2-(1,1-difluoroethyl)-6-methylpyrimidin-4-yl)amino)-5-((1-methylpyrrolidin-3-yl)methoxy)pyridin-2-yl)acetamide] |
| 100 to 1000 | CC(=O)Nc1cc(Nc2cc(C)nc(C(C)(F)F)n2)c(OCC(=O)N(C)C)cn1 [Example 103, 2-((6-acetamido-4-((2-(1,1-difluoroethyl)-6-methylpyrimidin-4-yl)amino)pyridin-3-yl)oxy)-N,N-dimethylacetamide] |
| ≤ 10 | CC(=O)Nc1cc(Nc2cc(C)nc(C(C)(F)F)n2)c(-c2cc3n(n2)C(O)CN(C)C3)cn1 (stereo not shown) [Example 224, N-(4-((2-(1,1-difluoroethyl)-6-methylpyrimidin-4-yl)amino)-5-(7-hydroxy-5-methyl-4,5,6,7-tetrahydropyrazolo[1,5-a]pyrazin-2-yl)pyridin-2-yl)acetamide] |
| ≤ 10 | CC(=O)Nc1cc(Nc2cc(C)nc(C(C)(F)F)n2)c(-c2ccc(C(F)F)nn2)cn1 [Example 546, N-(4-((2-(1,1-difluoroethyl)-6-methylpyrimidin-4-yl)amino)-5-(6-(difluoromethyl)pyridazin-3-yl)pyridin-2-yl)acetamide] |

| SMILES | IC50 [nM] |
| --- | --- |
| CC(=O)Nc1cc(Nc2cc(C)nc(C(C)(F)F)n2)c(OCCOC(C)(C)C)cn1 [Example 113, N-(5-(2-(tert-butoxy)ethoxy)-4-((2-(1,1-difluoroethyl)-6-methylpyrimidin-4-yl)amino)pyridin-2-yl)acetamide] | ≤ 10 |
